The target in the first experiment is T1, Recombinant human renin (Homo sapiens, UniProt P00797).
T1 construct: isolate the active form (residues 67-406); made in house; host or cells: FreeStyle 293-F cells (transient expression of pcDNA3.1(+)/hREN)
T1 sequence (P00797 67-406): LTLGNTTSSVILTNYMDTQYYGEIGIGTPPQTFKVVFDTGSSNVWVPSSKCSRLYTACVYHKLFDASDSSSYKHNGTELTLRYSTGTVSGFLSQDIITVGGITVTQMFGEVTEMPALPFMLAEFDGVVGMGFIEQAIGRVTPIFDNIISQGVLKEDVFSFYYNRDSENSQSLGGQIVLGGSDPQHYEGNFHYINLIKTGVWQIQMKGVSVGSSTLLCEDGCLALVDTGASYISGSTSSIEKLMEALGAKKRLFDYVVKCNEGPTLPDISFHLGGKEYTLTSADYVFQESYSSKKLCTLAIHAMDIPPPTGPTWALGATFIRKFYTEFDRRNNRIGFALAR
Put plainly: In vitro enzymatic activity assay of renin inhibitors (fluorogenic peptide substrate).
Details: not given
The class given is biochemical. Summed up: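 Recombinant human renin (3 nM final) pre-incubated 10 min at 37 °C with compounds in pH 7.4 Hepes/EDTA/DTT/0.1 mg/mL BSA/Brij35 buffer (optionally plus 2% BSA), 5% DMSO final; fluorogenic QXL520/HiLyteFluo488 peptide substrate added.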
In the case of `COCCCn1c([C@@H]2CCCN(C(=O)[C@@H]3CN(C(=O)Oc4ccccc4Cl)C[C@H]3N)C2)nc2ccccc21` [Compound 390, (3S,4R)-2-chlorophenyl 3-amino-4-((R)-3-(1-(3-methoxypropyl)-1H-benzo[d]imidazol-2-yl)piperidine-1-carbonyl)pyrrolidine-1-carboxylate], the IC50 (commonly the concentration that gives 50% inhibition) was above 1 µM.

Staying with this experiment, now noted: read-out: IC50 of Exemplified Compounds Against Renin.
In the case of `COCCCn1c([C@@H]2CCCN(C(=O)[C@@H]3CN(C(=O)c4cccc5ccccc45)C[C@H]3N)C2)nc2ccccc21` [Compound 376, ((3R,4S)-1-(1-naphthoyl)-4-aminopyrrolidin-3-yl)((R)-3-(1-(3-methoxypropyl)-1H-benzo[d]imidazol-2-yl)piperidin-1-yl)methanone], the IC50 was 0.1 to 1 µM.
Take `COCCCn1c([C@@H]2CCCN(C(=O)[C@@H]3CN(C(=O)c4cccc(C(=O)OC)c4)C[C@H]3N)C2)nc2ccccc21` [Compound 377, methyl 3-((3S,4R)-3-amino-4-((R)-3-(1-(3-methoxypropyl)-1H-benzo[d]imidazol-2-yl)piperidine-1-carbonyl)pyrrolidine-1-carbonyl)benzoate]: the IC50 was 0.1 to 1 µM.
The same measure, in the same setting: the figure for `COCCCn1c([C@@H]2CCCN(C(=O)[C@@H]3CN(C(=O)Nc4cccc(Cl)c4)C[C@H]3N)C2)nc2ccccc21` [Compound 378, (3S,4R)3-amino-N-(3-chlorophenyl)-4-((R)-3-(1-(3-methoxypropyl)-1H-benzo[d]imidazol-2-yl)piperidine-1-carbonyl)pyrrolidine-1-carboxamide] is 0.1 to 1 µM.
Same read-out and setting: the figure for `COCCCn1c([C@@H]2CCCN(C(=O)[C@@H]3CN(S(=O)(=O)c4ccccc4OC)C[C@H]3N)C2)nc2ccccc21` [Compound 379, ((3R,4S)-4-amino-1-(2-methoxyphenylsulfonyl)pyrrolidin-3-yl)((R)-3-(1-(3-methoxypropyl)-1H-benzo[d]imidazol-2-yl)piperidin-1-yl)methanone] is 0.1 to 1 µM; for `COCCCn1c([C@@H]2CCCN(C(=O)[C@@H]3CN(S(=O)(=O)c4ccc(NC(C)=O)cc4)C[C@H]3N)C2)nc2ccccc21` [Compound 380, N-(4-((3S,4R)-3-amino-4-((R)-3-(1-(3-methoxypropyl)-1H-benzo[d]imidazol-2-yl)piperidine-1-carbonyl)pyrrolidin-1-ylsulfonyl)phenyl)acetamide] it is 0.1 to 1 µM; for `COCCCn1c([C@@H]2CCCN(C(=O)[C@@H]3CN(S(=O)(=O)c4ccc(OC)cc4[N+](=O)[O-])C[C@H]3N)C2)nc2ccccc21` [Compound 381, ((3R,4S)-4-amino-1-(4-methoxy-2-nitrophenylsulfonyl)pyrrolidin-3-yl)((R)-3-(1-(3-methoxypropyl)-1H-benzo[d]imidazol-2-yl)piperidin-1-yl)methanone] it is 0.1 to 1 µM.
Still for that read-out and setting: for `COCCCn1c([C@@H]2CCCN(C(=O)[C@@H]3CN(S(=O)(=O)c4ccc(N5CCCC5=O)cc4)C[C@H]3N)C2)nc2ccccc21` [Compound 382, 1-(4-((3S,4R)-3-amino-4-((R)-3-(1-(3-methoxypropyl)-1H-benzo[d]imidazol-2-yl)piperidine-1-carbonyl)pyrrolidin-1-ylsulfonyl)phenyl)pyrrolidin-2-one] the value was 0.1 to 1 µM; for `COCCCn1c([C@@H]2CCCN(C(=O)[C@@H]3CN(S(=O)(=O)c4ccc(C)cc4C)C[C@H]3N)C2)nc2ccccc21` [Compound 383, ((3R,4S)-4-amino-1-(2,4-dimethylphenylsulfonyl)pyrrolidin-3-yl)((R)-3-(1-(3-methoxypropyl)-1H-benzo[d]imidazol-2-yl)piperidin-1-yl)methanone], 0.1 to 1 µM.
Regarding `COCCCn1c([C@@H]2CCCN(C(=O)[C@@H]3CN(S(=O)(=O)c4ccccc4)C[C@H]3N)C2)nc2ccccc21` [Compound 384, ((3R,4S)-4-amino-1-(phenylsulfonyl)pyrrolidin-3-yl)((R)-3-(1-(3-methoxypropyl)-1H-benzo[d]imidazol-2-yl)piperidin-1-yl)methanone], the IC50 is above 1 µM.
Take `COCCCn1c([C@@H]2CCCN(C(=O)[C@@H]3CN(C(=O)c4ccccc4)C[C@H]3N)C2)nc2ccccc21` [Compound 385, ((3R,4S)-4-amino-1-benzoylpyrrolidin-3-yl)((R)-3-(1-(3-methoxypropyl)-1H-benzo[d]imidazol-2-yl)piperidin-1-yl)methanone]: the IC50 is above 1 µM.
Same read-out and setting: the figure for `COCCCn1c([C@@H]2CCCN(C(=O)[C@@H]3CN(C(=O)NC4CCCCC4)C[C@H]3N)C2)nc2ccccc21` [Compound 386, (3S,4R)-3-amino-N-cyclohexyl-4-((R)-3-(1-(3-methoxypropyl)-1H-benzo[d]imidazol-2-yl)piperidine-1-carbonyl)pyrrolidine-1-carboxamide] is above 1 µM; for `COCCCn1c([C@@H]2CCCN(C(=O)[C@@H]3CN(C(=O)c4ccccc4OC)C[C@H]3N)C2)nc2ccccc21` [Compound 387, ((3R,4S)-4-amino-1-(2-methoxybenzoyl)pyrrolidin-3-yl)((R)-3-(1-(3-methoxypropyl)-1H-benzo[d]imidazol-2-yl)piperidin-1-yl)methanone] it is above 1 µM; for `COCCCn1c([C@@H]2CCCN(C(=O)[C@@H]3CN(C(=O)Nc4ccc(Cl)cc4)C[C@H]3N)C2)nc2ccccc21` [Compound 388, (3S,4R)-3-amino-N-(4-chlorophenyl)-4-((R)-3-(1-(3-methoxypropyl)-1H-benzo[d]imidazol-2-yl)piperidine-l-carbonyl)pyrrolidine-1-carboxamide] it is above 1 µM.
On the same count and under the same terms, the figure for `COCCCn1c([C@@H]2CCCN(C(=O)[C@@H]3CN(C(=O)Nc4ccccc4Cl)C[C@H]3N)C2)nc2ccccc21` [Compound 389, (3S,4R)-3-amino-N-(2-chlorophenyl)-4-((R)-3-(1-(3-methoxypropyl)-1H-benzo[d]imidazol-2-yl)piperidine-1-carbonyl)pyrrolidine-1-carboxamide] is above 1 µM.
Still for that read-out and setting: for `COCCCn1c([C@@H]2CCCN(C(=O)[C@@H]3CN(S(=O)(=O)c4ccc(C#N)cc4Cl)C[C@H]3N)C2)nc2ccccc21` [Compound 391, 4-((3S,4R)-3-amino-4-((R)-3-(1-(3-methoxypropyl)-1H-benzo[d]imidazol-2-yl)piperidine-1-carbonyl)pyrrolidin-1-ylsulfonyl)-3-chlorobenzonitrile] the value was above 1 µM; for `COCCCn1c([C@@H]2CCCN(C(=O)[C@@H]3CN(S(=O)(=O)c4cccc5c4ccn5C)C[C@H]3N)C2)nc2ccccc21` [Compound 392, ((3R,4S)-4-amino-1-(1-methyl-1H-indol-4-ylsulfonyl)pyrrolidin-3-yl)((R)-3-(1-(3-methoxypropyl)-1H-benzo[d]imidazol-2-yl)piperidin-1-yl)methanone], above 1 µM; for `COCCCn1c([C@@H]2CCCN(C(=O)[C@@H]3CN(C(=O)c4cccc(F)c4)C[C@H]3N)C2)nc2ccccc21` [Compound 393, ((3R,4S)-4-amino-1-(3-fluorobenzoyl)pyrrolidin-3-yl)((R)-3-(1-(3-methoxypropyl)-1H-benzo[d]imidazol-2-yl)piperidin-1-yl)methanone], above 1 µM.
In the case of `COCCCn1c([C@@H]2CCCN(C(=O)[C@@H]3CN(C(=O)c4ccc(OC)cc4)C[C@H]3N)C2)nc2ccccc21` [Compound 394, ((3R,4S)-4-amino-1-(4-methoxybenzoyl)pyrrolidin-3-yl)((R)-3-(1-(3-methoxypropyl)-1H-benzo[d]imidazol-2-yl)piperidin-1-yl)methanone], the concentration for half-maximal inhibition (IC50) was above 1 µM.
In the case of `COCCCn1c([C@@H]2CCCN(C(=O)[C@@H]3CN(C(=O)C4CCCC4)C[C@H]3N)C2)nc2ccccc21` [Compound 395, ((3R,4S)-4-amino-1-(cyclopentanecarbonyl)pyrrolidin-3-yl)((R)-3-(1-(3-methoxypropyl)-1H-benzo[d]imidazol-2-yl)piperidin-1-yl)methanone], the IC50 is above 1 µM.
On the same count and under the same terms, the figure for `COCCCn1c([C@@H]2CCCN(C(=O)[C@@H]3CN(C(=O)C(C)C)C[C@H]3N)C2)nc2ccccc21` [Compound 396, 1-((3S,4R)-3-amino-4-((R)-3-(1-(3-methoxypropyl)-1H-benzo[d]imidazol-2-yl)piperidine-1-carbonyl)pyrrolidin-1-yl)-2-methylpropan-1-one] is above 1 µM; for `COCCCn1c([C@@H]2CCCN(C(=O)[C@@H]3CN(C(=O)CC4CCCCC4)C[C@H]3N)C2)nc2ccccc21` [Compound 397, l-((3S,4R)-3-amino-4-((R)-3-(1-(3-methoxypropyl)-1H-benzo[d]imidazol-2-yl)piperidine-1-carbonyl)pyrrolidin-1-yl)-2-cyclohexylethanone] it is above 1 µM.
Same read-out and setting: for `COCCCn1c([C@@H]2CCCN(C(=O)[C@@H]3CN(C(=O)c4ccccc4Cl)C[C@H]3N)C2)nc2ccccc21` [Compound 398, ((3R,4S)-4-amino-1-(2-chlorobenzoyl)pyrrolidin-3-yl)((R)-3-(1-(3-methoxypropyl)-1H-benzo[d]imidazol-2-yl)piperidin-1-yl)methanone] the value was above 1 µM.
Regarding `COCCCn1c([C@@H]2CCCN(C(=O)[C@@H]3CN(C(=O)NC4CCCC4)C[C@H]3N)C2)nc2ccccc21` [Compound 399, (3S,4R)-3-amino-N-cyclopentyl-4-((R)-3-(1-(3-methoxypropyl)-1H-benzo[d]imidazol-2-yl)piperidine-1-carbonyl)pyrrolidine-1-carboxamide], the IC50 was above 1 µM.
